{
  "source": "patent US5512573A",
  "about": "“Use of phthaloylhydrazide derivatives as anti-hypoxic and defensive agents” (priority 1993, dated 1996)",
  "key": {"[1]": {"test": "Summary of experiments on phthaloylhydrazide derivatives", "format": "in vivo", "conditions": "for pharmacological activity, anti-hypoxic and defensive action: doses of 10 to 300 mg/kg"}, "[2]": {"system": "brain ischemia (carotid tying) in mice", "test": "Example 4: carotid tying and release in mice", "format": "in vivo", "conditions": "control mortality 50%", "experimental": "We performed experiments on 50 mice of the pyramid by tying the carotid under light anesthesia. After 7 minutes, we released the tie and restored the blood circulation in the ischemic area."}, "[3]": {"system": "myocardial ischemia in rats", "test": "Example 3: myocardial ischemia with restored circulation in rats", "format": "in vivo", "experimental": "Experiments were performed on 60 previously prepared rats. Thirty days before the start of the main experiment, a part of the coronary artery was tied off.\nNext, after having supplied light anesthesia, we created by means of the obstruction of the vessel a massive hearth of myocardial ischemia.\nWe administered the sodium salt intravenously in doses of 30, 100, 200 and 250 mg per kilogram of body weight, immediately after having released the tie. In the control group, the rats were administered a physiological solution, while the test group was given the antioxidant Dibunolo (20% oily solution in a dose of 30 mg/kg)."}, "Sprague-Dawley rats": {"system": "Sprague-Dawley rats", "conditions": "use to decrease serum cholesterol levels; cited from earlier work"}, "[4]": {"system": "leukocytes in ischemic tissue; surviving animals"}, "leukocytes": {"system": "leukocytes", "conditions": "in vivo"}, "hypoxia in mice": {"system": "hypoxia in mice", "test": "Example 1: resistance of mice to hypoxia (altitude of 10,400 meters)", "format": "in vivo", "conditions": "control 41±2.5, sodium salt at 60 to 80 mg/kg", "experimental": "We assessed the pharmacological activity on the basis of the resistance of the animals to hypoxia. […] We administered the drug intravenously in doses of 10 to 300 mg, in 0.1 ml of physiological solution. In some cases, because of poor solubility, we injected the derivatives in the form of suspensions. The control animals received 0.1 ml of physiological solution."}, "[5]": {"system": "ethane and pentane contents of the air inhaled by the animals", "conditions": "change in ethane and pentane contents"}, "[6]": {"conditions": "morphological analysis, test group"}},
  "note": "Structures can show the parent of a compound that is named as a salt.",
  "data": [
    {"compound": "4,5-amino-2,3- dihydrophthalazine-1,2 dione [4,5-aminophthaloylhydrazide]", "values": [
      {"measurement": "pharmacological activity, anti-hypoxic and defensive action", "setting": "[1]", "value": "possess a pronounced pharmacological activity"}
    ]},
    {"compound": "4-methyl-4,5-diamino-2,3 dihydrophthalazine-1,2 dione", "values": [
      {"measurement": "pharmacological activity, anti-hypoxic and defensive action", "setting": "[1]", "value": "possess a pronounced pharmacological activity"}
    ]},
    {"compound": "Nc1ccc2c(=O)[nH][nH]c(=O)c2c1", "note": "[4-aminophthaloylhydrazide]", "values": [
      {"measurement": "therapeutic effects", "setting": "[1]; in vivo", "value": "major therapeutic effects"}
    ]},
    {"compound": "Cc1cc(C(C)(C)C)c(O)c(C(C)(C)C)c1", "note": "[Dibunolo, reference compound]", "values": [
      {"measurement": "prevention of mortality", "setting": "[2]", "value": "not entirely prevented"},
      {"measurement": "survival rate", "setting": "[3]; Dibunolo 20% oily solution, 30 mg/kg, p>0.05", "value": "tendency toward rising survival rates of the animals, but the results obtained were not reliable"}
    ]},
    {"compound": "O=c1[nH][nH]c(=O)c2ccccc12", "note": "[Phthaloylhydrazide, 2,3 dihydrophthalazine-1,4 dione]", "values": [
      {"measurement": "pharmacological activity, anti-hypoxic and defensive action", "setting": "[1]", "value": "possess a pronounced pharmacological activity"},
      {"measurement": "toxicity", "setting": "Sprague-Dawley rats", "value": "certain signs of toxicity"}
    ]},
    {"compound": "N[C@@H](Cc1c[nH]cn1)C(=O)O", "note": "[histidine, reference compound]", "values": [
      {"measurement": "prevention of mortality", "setting": "[2]", "value": "not entirely prevented"}
    ]},
    {"compound": "Nc1cccc2c(=O)[nH][nH]c(=O)c12", "note": "[sodium salt of 5-aminophthaloylhydrazide, sodium salt of 5-amino-2,3-dihydrophthalazine-1,2 dione]", "values": [
      {"measurement": "percentage of surviving animals", "setting": "[4]; experimental group, intravenous, p<0.01", "value": 80, "unit": "%"},
      {"measurement": "increase of leukocyte levels in the blood", "setting": "[4]; one time i.v. 150 to 250 mg/kg", "value": 2.5, "unit": "times"},
      {"measurement": "previously penetrated leukocytes eliminated", "setting": "[4]; one time i.v. 150 to 250 mg/kg, after 6 hours", "value": 75, "unit": "%"},
      {"measurement": "signs of a therapeutic effect", "setting": "[3]; 30 mg/kg i.v.", "value": "clear signs of a therapeutic effect"},
      {"measurement": "prevention of death", "setting": "[3]; 30 mg/kg i.v., p>0.05", "value": "did not prevent the death of the animals"},
      {"measurement": "number of surviving animals", "setting": "[3]; 100 mg/kg and beyond, i.v., p<0.01-0.001", "value": "increase in the number of surviving animals"},
      {"measurement": "damaged area of myocardium", "setting": "[3]; [6]", "value": "the damaged area could not be perceived visually"},
      {"measurement": "necrotic hearths in myocardium", "setting": "[3]; [6]", "value": "The tiny necrotic hearths were few and diffused"},
      {"measurement": "anti-hypoxic activity vs antioxidants (Dibunolo, histidine, Organeia, etc.)", "setting": "hypoxia; 60 to 80 mg", "value": "exceeds that of antioxidants used thus far in medical practice"},
      {"measurement": "anti-hypoxic effect on further dose increase", "setting": "hypoxia; beyond 100 mg/kg", "value": "the effect does not basically increase"},
      {"measurement": "adhesion capacity of the leukocytes", "setting": "leukocytes", "value": "drop in the adhesion capacity of the leukocytes"},
      {"measurement": "life span of the animals", "setting": "hypoxia in mice", "value": "222 ± 45", "unit": "s"},
      {"measurement": "antioxidant action in vivo", "setting": "[5]", "value": "antioxidant action in vivo"}
    ]},
    {"compound": "dimethyldiaminophthaloylhydrazide", "values": [
      {"measurement": "life span of the animals", "setting": "hypoxia in mice", "value": "89 ± 12", "unit": "s"}
    ]}
  ]
}
